Assay results from patent US20210115104A1, “AMYLIN ANALOGUES” (Zealand Pharma A/S, priority 2015, published 2021).
*1 amine or outer side, *2 acyl side, *3 side chain or, on linkers, in order; H or OH if unused. Where a SMILES comes first, the peptide text is derived from it. Bridges are numbered along the chain shown (N, C = ends). [ ]: non-standard residue; d: D form. The star is where a group is joined. C20 diacid = O=C(O)CCCCCCCCCCCCCCCCCCC(=O)*; γGlu = O=C(O)[C@H](CCC(=O)[*:2])N[*:1]; Hyp = O=C(O)[C@@H]1C[C@@H](O)CN1; NMeI = CC[C@H](C)[C@H](NC)C(=O)O; Aad = N[C@@H](CCCC(=O)O)C(=O)O; Sar = CNCC(=O)O

Experiments:
[1] = target: T1, human calcitonin receptor (hCTR2) (Homo sapiens, UniProt P30988); assay: hCTR2 cAMP assay (AlphaScreen) in COS7 cells; format: cell-based; details: cAMP induction, COS7 cells expressing hCTR2; Table 1; read-out: hCTR2 EC50
T1 construct: expressed in transfected cells
T1 sequence (P30988 25-474): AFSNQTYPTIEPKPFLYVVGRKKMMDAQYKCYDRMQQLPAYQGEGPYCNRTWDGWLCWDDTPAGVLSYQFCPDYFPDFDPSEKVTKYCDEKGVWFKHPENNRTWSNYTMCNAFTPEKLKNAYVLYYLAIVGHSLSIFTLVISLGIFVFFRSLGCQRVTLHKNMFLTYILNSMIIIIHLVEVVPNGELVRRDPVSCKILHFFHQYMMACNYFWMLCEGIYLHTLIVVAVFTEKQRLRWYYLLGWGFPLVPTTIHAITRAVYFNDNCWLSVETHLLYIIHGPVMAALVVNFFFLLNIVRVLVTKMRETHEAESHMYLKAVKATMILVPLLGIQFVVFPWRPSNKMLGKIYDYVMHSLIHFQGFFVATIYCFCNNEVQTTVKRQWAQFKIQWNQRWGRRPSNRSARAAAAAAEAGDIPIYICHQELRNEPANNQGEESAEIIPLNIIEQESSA
Outline: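 cAMP induction, read by AlphaScreen after lysis, gives EC50 values via 4PL curve fitting. Peptides were applied at rising concentrations for 15 min at 37 °C, with IBMX and 0.1% casein in HEPES-buffered Tyrode pH 7.4, to COS7 cells (no endogenous RAMPs) stably expressing human CTR2.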

[2] = target: T2, human amylin receptor 3 (hAMYR3), hCTR2 co-expressed with hRAMP3 (Homo sapiens, UniProt O60896+P30988); assay: hAMYR3 cAMP assay (AlphaScreen) in COS7 cells; format: cell-based; details: cAMP induction, COS7 cells expressing hAMYR3; Table 1; read-out: hAMYR3 EC50
T2 construct: expressed in transfected cells
T2 sequence (P30988 25-474): T1 sequence (P30988 25-474)
T2 sequence (O60896 24-148 partner): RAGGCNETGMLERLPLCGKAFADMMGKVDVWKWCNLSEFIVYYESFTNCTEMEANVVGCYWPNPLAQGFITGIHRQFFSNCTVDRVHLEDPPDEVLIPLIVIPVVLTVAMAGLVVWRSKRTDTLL
Outline: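 EC50 values derive from 4PL curve fits of cAMP (AlphaScreen) in lysates of RAMP-naive COS7 cells stably carrying hCTR2 plus hRAMP3. Peptide dilution series were applied for 15 min at 37 °C in pH 7.4 Tyrode buffer containing 100 µM IBMX and 0.1% casein.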

[3] = Assessment of chemical stability (RP-HPLC normalized purity); format: physicochemical; details: 7 days, 40° C., Table 1; for Normalized purity after 7 days, 40° C., pH 4: pH 4, 0.2 mg/ml; for Normalized purity after 7 days, 40° C., pH 7.5: pH 7.5, 0.2 mg/ml; for Normalized purity after 7 days, 40° C., pH 9: pH 9, 0.2 mg/ml
Outline: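 Purity after 7 days at 40° C is expressed relative to T=0 (set to 100) for each pH. Samples at 0.2 mg/ml, pH 4, 6, 7.5 or 9, analyzed by RP-HPLC with UV 220 nm on C8 (ammonium formate) or C18 (TFA) gradients.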

Row | Compound | EC50 [1] [nM] | EC50 [2] [nM] | Normalized purity after 7 days, 40° C., pH 4 [3] | Normalized purity after 7 days, 40° C., pH 7.5 [3] | Normalized purity after 7 days, 40° C., pH 9 [3] | Normalized purity after 7 days, 40° C., pH 6 ([3]; pH 6, 0.2 mg/ml)
1 | CC[C@H](C)[C@@H](C(=O)N[C@@H](CC(C)C)C(=O)N[C@@H](CO)C(=O)N[C@@H](CO)C(=O)N[C@H](C(=O)N[C@@H](CCC(=O)O)C(=O)N[C@H](C(=O)NCC(=O)N[C@@H](CO)C(=O)N[C@@H](CO)C(=O)N[C@H](C(=O)N1C[C@H](O)C[C@H]1C(N)=O)[C@@H](C)O)C(C)C)[C@@H](C)O)N(C)C(=O)[C@H](C)NC(=O)CN(C)C(=O)[C@H](Cc1ccccc1)NC(=O)[C@H](CO)NC(=O)[C@H](CO)NC(=O)[C@H](CCCNC(=N)N)NC(=O)[C@H](CC(N)=O)NC(=O)[C@H](CC(C)C)NC(=O)[C@H](Cc1ccccc1)NC(=O)[C@H](Cc1c[nH]cn1)NC(=O)[C@H](C)NC(=O)[C@H](CC(C)C)NC(=O)[C@H](CCCNC(=N)N)NC(=O)[C@H](CCC(=O)O)NC(=O)[C@@H](NC(=O)[C@H](C)NC(=O)[C@@H]1CSSC[C@H](NC(=O)[C@H](CCCNC(=N)N)NC(=O)CC[C@H](NC(=O)CCCCCCCCCCCCCCCCCCC(=O)O)C(=O)O)C(=O)NCC(=O)N[C@@H]([C@@H](C)O)C(=O)N[C@@H](C)C(=O)N[C@@H]([C@@H](C)O)C(=O)N1)[C@@H](C)O [Compound 29, [19CD]-isoGlu-R-C( )-GTAT-C( )-ATERLAHFLNRSSF-Gly(Me)-A-Ile(Me)-LSSTEVGSST-Hyp-NH2] ({C20 diacid-γGlu}-RCGTATCATERLAHFLNRSSF[Sar]A[NMeI]LSSTEVGSST[Hyp]-NH2; disulfide 2-7) | 0.09 | 0.12 | A (A = >90%) | B (B = 70-90%) | B (B = 70-90%) | –
2 | CC[C@H](C)[C@@H](C(=O)N[C@@H](CC(C)C)C(=O)N[C@@H](CO)C(=O)N[C@@H](CO)C(=O)N[C@H](C(=O)N[C@@H](CCC(=O)O)C(=O)N[C@H](C(=O)NCC(=O)N[C@@H](CO)C(=O)N[C@@H](CO)C(=O)N[C@H](C(=O)N1C[C@H](O)C[C@H]1C(N)=O)[C@@H](C)O)C(C)C)[C@@H](C)O)N(C)C(=O)[C@H](C)NC(=O)CN(C)C(=O)[C@H](Cc1ccccc1)NC(=O)[C@H](CO)NC(=O)[C@H](CO)NC(=O)[C@H](CCCNC(=N)N)NC(=O)[C@@H](NC(=O)[C@H](CC(C)C)NC(=O)[C@H](Cc1ccccc1)NC(=O)[C@H](CC(=O)O)NC(=O)[C@H](C)NC(=O)[C@H](CC(C)C)NC(=O)[C@H](CCCNC(=N)N)NC(=O)[C@H](CCC(=O)O)NC(=O)[C@@H](NC(=O)[C@H](C)NC(=O)[C@@H]1CSSC[C@H](NC(=O)[C@H](CCCNC(=N)N)NC(=O)CC[C@H](NC(=O)CCCCCCCCCCCCCCCCCCC(=O)O)C(=O)O)C(=O)NCC(=O)N[C@@H]([C@@H](C)O)C(=O)N[C@@H](C)C(=O)N[C@@H]([C@@H](C)O)C(=O)N1)[C@@H](C)O)[C@@H](C)O [Compound 41, [19CD]-isoGlu-R-C( )-GTAT-C( )-ATERLADFLTRSSF-Gly(Me)-A-Ile(Me)-LSSTEVGSST-Hyp-NH2] ({C20 diacid-γGlu}-RCGTATCATERLADFLTRSSF[Sar]A[NMeI]LSSTEVGSST[Hyp]-NH2; disulfide 2-7) | 0.15 | 0.34 | B (B = 70-90%) | A (A = >90%) | A (A = >90%) | A (A = >90%)
3 | CC[C@H](C)[C@@H](C(=O)N[C@@H](CC(C)C)C(=O)N[C@@H](CO)C(=O)N[C@@H](CO)C(=O)N[C@H](C(=O)N[C@@H](CCC(=O)O)C(=O)N[C@H](C(=O)NCC(=O)N[C@@H](CO)C(=O)N[C@@H](CO)C(=O)N[C@H](C(=O)N1CCC[C@H]1C(N)=O)[C@@H](C)O)C(C)C)[C@@H](C)O)N(C)C(=O)[C@H](C)NC(=O)CN(C)C(=O)[C@H](Cc1ccccc1)NC(=O)[C@H](CO)NC(=O)[C@H](CO)NC(=O)[C@H](CCCNC(=N)N)NC(=O)[C@H](CCC(N)=O)NC(=O)[C@H](CC(C)C)NC(=O)[C@H](Cc1ccccc1)NC(=O)[C@H](Cc1c[nH]cn1)NC(=O)[C@H](C)NC(=O)[C@H](CC(C)C)NC(=O)[C@H](CCCNC(=N)N)NC(=O)[C@H](CCC(N)=O)NC(=O)[C@@H](NC(=O)[C@H](C)NC(=O)[C@@H]1CSSC[C@H](NC(=O)[C@H](CCCNC(=N)N)NC(=O)CC[C@H](NC(=O)CCCCCCCCCCCCCCCCCCC(=O)O)C(=O)O)C(=O)N[C@@H](CC(N)=O)C(=O)N[C@@H]([C@@H](C)O)C(=O)N[C@@H](C)C(=O)N[C@@H]([C@@H](C)O)C(=O)N1)[C@@H](C)O [Compound 85, [19CD]-isoGlu-R-C( )-NTAT-C( )-ATQRLAHFLQRSSF-Gly(Me)-A-Ile(Me)-LSSTEVGSSTP-NH2] ({C20 diacid-γGlu}-RCNTATCATQRLAHFLQRSSF[Sar]A[NMeI]LSSTEVGSSTP-NH2; disulfide 2-7) | 0.1 | 0.14 | – | – | – | –
4 | CC[C@H](C)[C@@H](C(=O)N[C@@H](CC(C)C)C(=O)N[C@@H](CO)C(=O)N[C@@H](CO)C(=O)N[C@H](C(=O)N[C@@H](CCC(=O)O)C(=O)N[C@H](C(=O)NCC(=O)N[C@@H](CO)C(=O)N[C@@H](CO)C(=O)N[C@H](C(=O)N1C[C@H](O)C[C@H]1C(N)=O)[C@@H](C)O)C(C)C)[C@@H](C)O)N(C)C(=O)[C@H](C)NC(=O)CN(C)C(=O)[C@H](Cc1ccccc1)NC(=O)[C@H](CO)NC(=O)[C@H](CO)NC(=O)[C@H](CCCNC(=N)N)NC(=O)[C@H](CCC(N)=O)NC(=O)[C@H](CC(C)C)NC(=O)[C@H](Cc1ccccc1)NC(=O)[C@H](CCCC(=O)O)NC(=O)[C@H](C)NC(=O)[C@H](CC(C)C)NC(=O)[C@H](CCCNC(=N)N)NC(=O)[C@H](CCC(N)=O)NC(=O)[C@@H](NC(=O)[C@H](C)NC(=O)[C@@H]1CSSC[C@H](NC(=O)[C@H](CCCNC(=N)N)NC(=O)CC[C@H](NC(=O)CCCCCCCCCCCCCCCCCCC(=O)O)C(=O)O)C(=O)N[C@@H](CC(N)=O)C(=O)N[C@@H]([C@@H](C)O)C(=O)N[C@@H](C)C(=O)N[C@@H]([C@@H](C)O)C(=O)N1)[C@@H](C)O [Compound 87, [19CD]-isoGlu-R-C( )-NTAT-C( )-ATQRLA-Aad-FLQRSSF-Gly(Me)-A-Ile(Me)-LSSTEVGSST-Hyp-NH2] ({C20 diacid-γGlu}-RCNTATCATQRLA[Aad]FLQRSSF[Sar]A[NMeI]LSSTEVGSST[Hyp]-NH2; disulfide 2-7) | 0.2 | 0.13 | – | – | – | –
